PubChem BioAssay (NCI)
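Method: 48-hour compound exposure of cells in 96-well plates, five concentrations, linear interpolation of endpoints. Definition used: TGI = concentration required for complete inhibition of growth.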

What was measured:
Assay in all cases: growth of human tumour cells (NCI), 48 h
HCT-15 colon = system: HCT-15 colon
A498 renal = system: A498 renal
HOP-62 NSCLC = system: HOP-62 NSCLC
CAKI-1 renal = system: CAKI-1 renal
EKVX NSCLC = system: EKVX NSCLC
DMS 114 small cell lung = system: DMS 114 small cell lung
DLD-1 colon = system: DLD-1 colon
KM20L2 colon = system: KM20L2 colon
U251 CNS = system: U251 CNS
SN12C renal = system: SN12C renal
SNB-19 CNS = system: SNB-19 CNS
HCC-2998 colon = system: HCC-2998 colon
A549 NSCLC = system: A549 NSCLC
HOP-92 NSCLC = system: HOP-92 NSCLC
HOP-18 NSCLC = system: HOP-18 NSCLC
RXF 393 renal = system: RXF 393 renal
XF 498 CNS = system: XF 498 CNS
DMS 273 small cell lung = system: DMS 273 small cell lung

**Q.** `CC(C)=CCC/C(C)=C/CC/C(C)=C/C(O)c1ccccc1` (centres undefined) was tested. Which TGI (HCT-15 colon) did it give?
**A.** 32.8 µM

**Q.** What about the TGI (A498 renal) of the same molecule?
**A.** 34.2 µM

**Q.** And the TGI (HOP-62 NSCLC)?
**A.** 34.3 µM

**Q.** What about the TGI (CAKI-1 renal) of the same molecule?
**A.** > 10 µM

**Q.** And the TGI (EKVX NSCLC)?
**A.** 34.3 µM

**Q.** And the TGI (DMS 114 small cell lung)?
**A.** 39.4 µM

**Q.** What about the TGI (DLD-1 colon) of the same molecule?
**A.** 34.4 µM

**Q.** What about the TGI (KM20L2 colon) of the same molecule?
**A.** 36 µM

**Q.** And the TGI (U251 CNS)?
**A.** 33.5 µM

**Q.** What about the TGI (SN12C renal) of the same molecule?
**A.** 33.9 µM

**Q.** What about the TGI (SNB-19 CNS) of the same molecule?
**A.** 35.3 µM

**Q.** How did the TGI (HCC-2998 colon) turn out when `COc1ccc(C2C(Cl)C(=O)N2NC(=O)c2ccc(NC(C)=O)cc2)cc1OC` (centres undefined) was run?
**A.** > 100 µM

**Q.** What about the TGI (HOP-62 NSCLC) of the same molecule?
**A.** > 100 µM

**Q.** What about the TGI (A549 NSCLC) of the same molecule?
**A.** > 100 µM

**Q.** And the TGI (HOP-92 NSCLC)?
**A.** > 100 µM

**Q.** What about the TGI (U251 CNS) of the same molecule?
**A.** > 100 µM

**Q.** And the TGI (HOP-18 NSCLC)?
**A.** > 100 µM

**Q.** And the TGI (SNB-19 CNS)?
**A.** > 100 µM

**Q.** `CCN(CC)CCSc1nc2c([N+](=O)[O-])cccc2[nH]1` was tested. Which TGI (RXF 393 renal) did it give?
**A.** > 100 µM

**Q.** And the TGI (HCT-15 colon)?
**A.** > 100 µM

**Q.** And the TGI (XF 498 CNS)?
**A.** > 100 µM

**Q.** What about the TGI (HCC-2998 colon) of the same molecule?
**A.** > 100 µM

**Q.** What about the TGI (DMS 273 small cell lung) of the same molecule?
**A.** > 100 µM

**Q.** And the TGI (A549 NSCLC)?
**A.** > 100 µM

**Q.** And the TGI (CAKI-1 renal)?
**A.** > 100 µM

**Q.** And the TGI (EKVX NSCLC)?
**A.** > 100 µM

**Q.** What about the TGI (DMS 114 small cell lung) of the same molecule?
**A.** > 100 µM

**Q.** What about the TGI (HOP-92 NSCLC) of the same molecule?
**A.** > 100 µM

**Q.** What about the TGI (SN12C renal) of the same molecule?
**A.** > 100 µM
